Tests used:
[1] = tested on: femoral arterial and venous bypass thrombosis; assay: Femoral arterial and venous bypass thrombosis in rabbits, single intravenous administration; assay type: in vivo, rabbit; conditions: 15 min
Description: (§1) 1. Grouping and administration: 48 Rabbits were randomly divided into 6 groups, 8 rabbits per group. 1) Sham operation group (NS): Intravenous injection of the same volume of physiological saline; 2) positive control bivalirudin group (6 mg/kg); 3) positive control enoxaparin group (200 U/kg); 4) Low dose group of polypeptide 2 (3.0 mg/kg); 5) Medium dose group of polypeptide 2 (6.0 mg/kg); 6) High dose group of polypeptide 2 (12.0 mg/kg). Polypeptide 2 was administered by single intravenous administration. According to the body weight in kilograms of the rabbits, the sample was dissolved in 2 mL of physiological saline for single bolus injection. The sham operation group was administered with the same volume of physiological saline.
2.1 Surgery preparation of rabbits: Rabbit were sent to the laboratory for accommodation for one day, and then screened at first. Blood samples were taken from arteries within ears, which were subjected to blood routine analysis and APTT examinations, and the rabbits with a normal blood hemogram and APTT between 16 and 28 seconds were selected for experiments. The rabbits to be tested were fasted with free access to water in the night before the experiment. The rabbits were anesthetized with intravenous injection of 3% sodium pentobarbital solution at 1 ml/kg, fixed in the supine position, and then, the common carotid artery at one side, external jugular vein, femoral artery at one side, femoral vein, and forelimb vein at one side were isolated. The forelimb vein was subjected to intubation for administration; the left femoral vein was subjected to intubation for blood collection to determine the platelet aggregation rate: the femoral artery was used for the establishment of an arterial thrombosis model; the common carotid artery and external jugular vein were used for the establishment of an arterial and venous bypass thrombosis model.
2.2 Arterial and venous bypass thrombosis (AVST) model: An arterial and venous shunt consists of two casings, of which an outer casing has a length of about 8 cm and an inner diameter of 7.9 mm, the inner casing has a length of about 2.5 cm and an inner diameter of 4.8 mm. The polyethylene tube was charged with a silk thread about 8 cm long and filled with […] heparin solution, of which one end was inserted into the left femoral artery and the other end was inserted into the right femoral vein. After administration for 30 seconds, the blood flow was released, which flowed from the left artery to the polyethylene tube and returned to the right vein. After 15 minutes, the blood flow was interrupted, the silk thread was quickly removed and placed on an aluminum foil (size: 2.5 cm×2.5 cm), measured for its wet weight, and kept overnight at room temperature and weighed for its dry weight.
The femoral arteries in the […] and both sides in the rabbits were isolated and stabilized for 10 min before the administration was started. An AT model was established by covering the femoral artery with 50% FeCl3 filter paper while administration, and the filter paper was removed after covering for 15 minutes. An AVST model was established and it was taken out after […]. Observation was continued for 120 min after administration until the experiment was completed.
3.4 Thrombus weight: After the experiment was completed, the segment of the blood vessels in which there had been thrombus formation was cut off, weighed for the wet weight, and then kept overnight at room temperature and weighed for the dry weight. The thrombosis inhibitory rate was calculated with a calculation equation as follows: […]

[2] = tested on: blood coagulation function; assay: PT in rats, intravenous maintenance administration; assay type: in vivo, rat
Description: (§2) 160 Rats were randomly divided into groups, 5 to 10 rats per group.
(§3) According to the body weight in kilograms of the rats, the first dose of a drug was dissolved in 2 mL of physiological saline for single bolus injection. The maintaining dose of drug was dissolved in 9 ml of physiological saline, and placed in a double-channel micro-injection pump, which was dripped off within 90 minutes at a dripping speed of 0.1 ml/min. The sham operation group was administered with the same volume of physiological saline.
(§4) The rats were fasted with free access to water overnight before the experiment.
The blood samples were taken before administration, administration for 60 minutes, and before termination of administration, respectively, to determine their activated partial thromboplastin time (APTT) and prothrombin time (PT). The blood samples were centrifuged at 3510 rpm for 8 minutes to obtain platelet poor plasma (PPP). Reagent reconstruction and preservation were performed according to the operation requirements of the kit. Immediately after each blood sample was placed into a test cup and then PT and APTT reagents were added, the test was started. After the test was completed, results were recorded.
5.1 Determination of blood coagulation function: The blood samples were taken 0 min before administration, administration for 60 minutes, and termination of administration, respectively, and then determined using a platelet-aggregation coagulation factor analyzer for the blood coagulation functions (PT. APTT) and ACT.

[3] = tested on: blood coagulation function; assay: TT in rabbits, single intravenous administration; assay type: in vivo, rabbit
Description: as §1
3.2 Determination of blood coagulation function: Blood samples were taken and the blood function (PT, TT, APTT) was determined at 0 min before administration, at points of 5 min and 15 min after administration, using a platelet-aggregation coagulation factor analyzer. Blood samples were centrifuged at 3510 rpm for 8 min to obtain platelet poor plasma (PPP). Reagent reconstruction and preservation were performed according to the operation requirements of the kit. Immediately after each blood sample was placed into a test cup and then added with PT. TT and APTT reagents, the test was started. After the test was completed, results were recorded.

[4] = tested on: FeCl3-induced inferior vena cava thrombosis; assay: FeCl3-induced inferior vena cava thrombosis in rats; assay type: in vivo, rat
Description: as §2, §3, §4
15 minutes later, the filter paper was removed. And then, after observation for 45 minutes, the blood vessels and local tissues were rinsed with warm physiological saline, and the covered blood vessels were cut off. The thrombus which attached to the blood vessel walls was peeled off to be weighed on a tin foil for its wet weight, and then weighed overnight at room temperature for its dry weight. The administration was continued until the completion of the experiment.
After the experiment was completed, the segment of the blood vessels in which there had been thrombus formation was cut off, weighed for the wet weight, and then weighed overnight at room temperature for the dry weight of the thrombus. Thrombosis inhibitory rate was calculated.

[5] = iv 0.041 + 0.125 (mg/kg + mg/kg/h)
[6] = iv 0.125 + 0.375 (mg/kg + mg/kg/h)
[7] = iv 0.25 + 0.75 (mg/kg + mg/kg/h)
[8] = iv 0.5 + 1.25 (mg/kg + mg/kg/h)
[9] = iv 1.5 + 3.75 (mg/kg + mg/kg/h)

Enoxaparin
Thrombus dry weight ([1]; single iv 200 U (U/kg)): 17.3 ± 6.5 mg
Thrombus inhibitory rate ([1]; single iv 200 U (U/kg)): 26.88%
PT Before administration ([2]; iv 30 + 45 u (U/kg+U/kg/h)): 10.23 ± 1.19
PT Fold of change ([2]; iv 30 + 45 u (U/kg+U/kg/h)): 1.24 ± 0.14
PT administration for 60 minutes ([2]; iv 30 + 45 u (U/kg+U/kg/h)): 12.70 ± 2.49
PT Before administration ([2]; iv 30 + 120 u (U/kg+U/kg/h)): 9.93 ± 1.77
PT Fold of change ([2]; iv 30 + 120 u (U/kg+U/kg/h)): 1.67 ± 0.42
PT administration for 60 minutes ([2]; iv 30 + 120 u (U/kg+U/kg/h)): 16.17 ± 1.86
PT Before administration ([2]; iv 60 + 60 u (U/kg+U/kg/h)): 9.53 ± 1.96
PT Fold of change ([2]; iv 60 + 60 u (U/kg+U/kg/h)): 4.10 ± 5.56
PT administration for 60 minutes ([2]; iv 60 + 60 u (U/kg+U/kg/h)): 31.39 ± 35.50
PT Before administration ([2]; iv 60 + 240 u (U/kg+U/kg/h)): 10.28 ± 0.98
PT Fold of change ([2]; iv 60 + 240 u (U/kg+U/kg/h)): 1.78 ± 0.30
PT administration for 60 minutes ([2]; iv 60 + 240 u (U/kg+U/kg/h)): 18.21 ± 2.70
PT Before administration ([2]; iv 90 + 120 u (U/kg+U/kg/h)): 9.63 ± 1.58
PT Fold of change ([2]; iv 90 + 120 u (U/kg+U/kg/h)): 1.57 ± 0.21
PT administration for 60 minutes ([2]; iv 90 + 120 u (U/kg+U/kg/h)): 14.88 ± 1.67
TT ([3]; single iv 200 (U/kg), Administration for 5 min): >180 s
TT ([3]; single iv 200 (U/kg), Administration for 15 min): >180 s
TT ([3]; single iv 200 (U/kg), Before administration): 20.7 ± 4.2 S
Inferior vena cava thrombosis Inhibition percentage ([4]; iv 30 + 45 u (U/kg+U/kg/h)): 34.93%
Inferior vena cava thrombosis Thrombus weight ([4]; iv 30 + 45 u (U/kg+U/kg/h)): 14.67 ± 8.44 mg
Inferior vena cava thrombosis Inhibition percentage ([4]; iv 30 + 120 u (U/kg+U/kg/h)): 49.07%
Inferior vena cava thrombosis Thrombus weight ([4]; iv 30 + 120 u (U/kg+U/kg/h)): 11.48 ± 2.81 mg
Inferior vena cava thrombosis Inhibition percentage ([4]; iv 60 + 60 u (U/kg+U/kg/h)): 50.42%
Inferior vena cava thrombosis Thrombus weight ([4]; iv 60 + 60 u (U/kg+U/kg/h)): 11.18 ± 4.47 mg
Inferior vena cava thrombosis Inhibition percentage ([4]; iv 60 + 240 u (U/kg+U/kg/h)): 86.25%
Inferior vena cava thrombosis Thrombus weight ([4]; iv 60 + 240 u (U/kg+U/kg/h)): 6.59 ± 2.54 mg
Inferior vena cava thrombosis Inhibition percentage ([4]; iv 90 + 120 u (U/kg+U/kg/h)): 64.06%
Inferior vena cava thrombosis Thrombus weight ([4]; iv 90 + 120 u (U/kg+U/kg/h)): 8.10 ± 3.67 mg

D-Phe Pro Arg Pro Gly Gly Gly Gly Asn Gly Asp Phe Glu Glu Ile Pro Glu Glu Tyr Leu Glu Ala Ala Ala Lys Cys Har Gly Asp Trp Pro Cys [Polypeptide 2]
Thrombus dry weight ([1]; single iv 3.0 mg/kg): 20.2 ± 4.3 mg
Thrombus inhibitory rate ([1]; single iv 3.0 mg/kg): 14.48%
Thrombus dry weight ([1]; single iv 6.0 mg/kg): 13.5 ± 5.3 mg
Thrombus inhibitory rate ([1]; single iv 6.0 mg/kg): 42.80%
Thrombus dry weight ([1]; single iv 12.0 mg/kg): 10.6 ± 6.8 mg
Thrombus inhibitory rate ([1]; single iv 12.0 mg/kg): 55.24%
PT Before administration [2, 5]: 10.74 ± 3.97
PT Fold of change [2, 5]: 1.95 ± 1.27
PT administration for 60 minutes [2, 5]: 18.95 ± 8.65
PT Before administration [2, 6]: 11.21 ± 1.62
PT Fold of change [2, 6]: 1.70 ± 0.34
PT administration for 60 minutes [2, 6]: 19.00 ± 4.39
PT Before administration [2, 7]: 11.19 ± 1.06
PT Fold of change [2, 7]: 1.87 ± 0.50
PT administration for 60 minutes [2, 7]: 20.82 ± 5.66
PT Before administration [2, 8]: 10.58 ± 1.48
PT Fold of change [2, 8]: 2.53 ± 0.73
PT Before administration ([2]; iv 1 + 2.5 (mg/kg + mg/kg/h)): 10.53 ± 1.29
PT Fold of change ([2]; iv 1 + 2.5 (mg/kg + mg/kg/h)): 5.57 ± 2.74
PT administration for 60 minutes ([2]; iv 1 + 2.5 (mg/kg + mg/kg/h)): 56.65 ± 23.16
PT Before administration [2, 9]: 11.98 ± 1.02
PT Fold of change [2, 9]: 3.91 ± 1.89
PT administration for 60 minutes [2, 9]: 46.64 ± 23.46
TT ([3]; single iv 3.0 mg/kg, Before administration): 21.0 ± 2.6 S
TT ([3]; single iv 6.0 mg/kg, Before administration): 22.3 ± 1.9 S
TT ([3]; single iv 12.0 mg/kg, Before administration): 21.8 ± 6.4 S
Inferior vena cava thrombosis Inhibition percentage [4, 5]: 10.38%
Inferior vena cava thrombosis Thrombus weight [4, 5]: 20.20 ± 10.00 mg
Inferior vena cava thrombosis Inhibition percentage [4, 6]: 27.99%
Inferior vena cava thrombosis Thrombus weight [4, 6]: 16.23 ± 6.76 mg
Inferior vena cava thrombosis Inhibition percentage [4, 7]: 36.85%
Inferior vena cava thrombosis Thrombus weight [4, 7]: 14.23 ± 4.82 mg
Inferior vena cava thrombosis Inhibition percentage [4, 8]: 58.96%
Inferior vena cava thrombosis Thrombus weight [4, 8]: 9.25 ± 4.86 mg
Inferior vena cava thrombosis Inhibition percentage ([4]; iv 1 + 2.5 (mg/kg + mg/kg/h)): 56.03%
Inferior vena cava thrombosis Thrombus weight ([4]; iv 1 + 2.5 (mg/kg + mg/kg/h)): 9.91 ± 6.20 mg
Inferior vena cava thrombosis Inhibition percentage [4, 9]: 68.37%
Inferior vena cava thrombosis Thrombus weight [4, 9]: 7.13 ± 3.46 mg

— patent publication US11643439B2, “Multi-target compound with anticoagulation and antiplatelet activity, preparation method therefor, and use thereof” (SHAANXI MICOT TECHNOLOGY LIMITED COMPANY, priority 2015, dated 2023)
